# Assay results taken from patent US20040102422A1, “Cancer therapy” (The University of Bristol, priority 2001, published 2004).
# How the values were obtained:
# [1] = system: HeLa cells; test: Apoptosis of HeLa cells transiently transfected with pWEB-E2 (HPV 16 E2) or empty pWEB, scored by GFP and Hoechst stain; assay type: cell-based
# Protocol: (§1) In all of the following experiments, HeLa cells were maintained in Minimal Essential Medium (MEM: Sigma) supplemented with 10% Foetal Bovine Serum (FBS: Sigma) and penicillin (100,000 U/litre) and streptomycin (100 mg/litre) at 37° C. in 5% CO2. In some cases, supplements (all obtained from Sigma, with the exception of 3-hydroxytamoxifen which was obtained from Research Biochemicals International (RBI)) were added to the media at the concentrations specifically indicated for each separate experiment.
# Prior to transient transfection, cells were seeded at 3×10^5 cells per well onto coverslips in 6 well plates and incubated overnight to obtain a sub-confluent culture. The liposome based reagent Tfx-20 (Promega) was used at a 3:1 liposome:DNA ratio in 1 ml serum-free media per transfection, according to the manufacturer's instructions. After 30 hours, the coverslips were washed in phosphate buffered saline (PBS) and the cells fixed in 4% paraformaldehyde/PBS at 22° C. for 30 minutes. Following further washes in PBS, the cells were stained with bisbenzimide (Hoechst No. 33258: Sigma) for 30 minutes. Finally the coverslips were washed in PBS and mounted onto microscope slides in 10 μl MOWIOL (Calbiochem).
# Where used, fluorescence microscopy was carried out using a Leica DM IRBE inverted epi-fluorescent microscope with FITC and DAPI filter sets and a 20× air objective (Leica).
# The plasmid pWEB-E2 expresses the HPV 16 E2 protein (Webster, K. et al., (2000) supra). Increasing amounts of pWEB-E2 and the empty pWEB vector were transiently transfected into HeLa cells, an HPV 18-transformed cell cervical carcinoma cell line, along with a plasmid (pCMX-GFP3- supplied by Dr Jeremy Tavaré of the Department of Biochemistry, University of Bristol, UK) that expresses the green fluorescent protein (GFP). After 30 hours the cells were fixed and then stained with bisbenzimide (Hoechst stain). Individual cells were scored as untransfected or transfected on the basis of GFP expression and then examined for chromatin condensation and membrane blebbing using Hoechst stain and GFP, respectively (Webster, K. et al., (2000) spra). 100 transfected cells were counted and the experiment was repeated four times.
# [2] = system: HeLa cells; test: MTT assay of HeLa cell viability / proliferation; assay type: cell-based; conditions: for cell proliferation (number of viable cells, MTT): HeLa cultured in media containing the single agent, read at 24 hour intervals, FIG. 1(d), 1(e)
# Protocol: as §1
# Where MTT assays were carried out, this involved removal of the media, followed by incubation of the cells in 50 μg/ml MTT (3-(4,5 dimethylthiazol 2-yl) 2,5 diphenyl tetrazolium bromide) for 2 hours at 37° C. The blue formazan crystals were extracted and dissolved in DMSO (dimethylsulfoxide), and the absorbance measured at 560 nm wavelength using an ELISA plate reader (Mosmann, T. (1983) Journal of Immunological Methods 65, 55-631983).
# To examine the effects of RU486 and progesterone on cell proliferation, HeLa cells were cultured in media containing RU486 and/or progesterone and at 24 hour intervals the number of viable cells was determined using MTT assays (Mosmann, T. (1983) supra). […] The presence of RU486 has little effect on cell proliferation (FIG. 1(e)).
structure (smiles),measurement,setting,value
C[C@]12CC[C@@H]3c4ccc(O)cc4CC[C@H]3[C@@H]1C[C@@H](O)C2=O [16α-hydroxyestrone],level of E2-induced apoptosis,"[1]; pWEB-E2 transfected HeLa incubated 24 hours in media with various concentrations of the hormone, FIG. 2(a), 2(b)",increases the level of E2-induced apoptosis
CC(=O)[C@H]1CC[C@H]2[C@@H]3CCC4=CC(=O)CC[C@]4(C)[C@H]3CC[C@]12C [progesterone],levels of E2-induced apoptosis,"[1]; HeLa cultured in 2 μM progesterone for one week prior to transfection with pWEB-E2, FIG. 1(b)",significant increase
same,level of apoptosis in E2 expression plasmid transfected population,"[1]; HeLa cultured in 2 μM progesterone one week before transfection and incubated in 2 μM progesterone, no RU486, FIG. 1(c)",high levels of apoptosis
same,level of apoptosis in cells transfected with the empty pWEB vector,"[1]; HeLa cultured in progesterone for one week prior to transfection with pWEB, FIG. 1(b)",around 7%
same,"cell proliferation (number of viable cells, MTT)",[2],decrease in cell proliferation
"CC#C[C@]1(O)CC[C@H]2[C@@H]3CCC4=CC(=O)CCC4=C3[C@@H](c3ccc(N(C)C)cc3)C[C@@]21C [RU486, Mifepristone]",levels of apoptosis,"[1]; 2 μM progesterone plus 100 nM and 200 nM RU486, compared with 50 nM RU486, FIG. 1(c)",raised compared to those at 50 nM RU486
same,level of E2-induced apoptosis,"[1]; pWEB-E2 transfected HeLa, 2 μM progesterone plus 50 nM RU486, FIG. 1(c)",reduced almost to the background levels
same,level of apoptosis in the untransfected cells,"[1]; progesterone plus 200 nM RU486, FIG. 1(c)",slight increase
same,"cell proliferation (number of viable cells, MTT)",[2],little effect
"CC/C(=C(/c1ccc(OCCN(C)C)cc1)c1cccc(O)c1)c1ccccc1 [3-OHT, 3-hydroxytamoxifen]",percentage of apoptotic cells in the pWEB-transfected population,"[1]; empty vector pWEB, presence of estrogen and 3-OHT, FIG. 2(c)",around 5%
same,percentage of apoptotic cells,"[1]; pWEB-E2 transfected HeLa, 400 nM estrogen plus 400 nM 3-OHT, FIG. 2(c)",around 10%
same,proliferation of HeLa cells (MTT),"[2]; 3-OHT alone or 3-OHT with estrogen, over time, FIG. 2(e), 2(f)",no effect
